Laboratory results from US10087148B2, “Quinazolines as biogenic amine transport modulators” (THE UNITED STATES OF AMERICA AS REPRESENTED BY THE …, priority 2014, dated 2018).

target: dopamine transporter (DAT) (Rattus norvegicus (Rat), UniProt P23977); assay: [3H]dopamine (DA) uptake inhibition in rat brain (caudate) synaptosomes; type: biochemical; conditions: not given
Protocol: Uptake inhibition assay for the dopamine transporter was conducted in rat brain synaptosomes as described elsewhere with minor modifications (Rothman et al., Synapse 39, 32-41 (2001)). Freshly removed caudate was homogenized in 10% ice-cold sucrose with 12 strokes of a hand-held Potter-Elvehjem homogenizer followed by centrifugation at 1000×g for 10 min. The supernatants were saved on ice and used immediately. Transporter activity was assessed using 5 nM [^3H]dopamine. The assay buffer was Krebs-phosphate buffer containing 154.4 mM NaCl, 2.9 mM KCl, 1.1 mM CaCl2, 0.83 mM MgCl2, 5 mM glucose, 1 mg/mL ascorbic acid, and 50 μM pargyline. The selectivity of the uptake assay for DAT was optimized by including 100 nM citalopram and 100 nM desipramine as blockers of SERT and NET in the sucrose solution and assay buffer. Uptake inhibition assays were conducted at 25° C. and were initiated by adding 100 μl of tissue to 900 μL assay buffer containing test drug and [^3H]dopamine. Test drugs were diluted in assay buffer containing 1 mg/mL bovine serum albumin. Nonspecific uptake was measured by incubating in the presence of 10 μM indatraline. The reactions were stopped after 15 minutes by rapid vacuum filtration with a cell harvester (BRANDEL) over GF/B filters (Whatman) presoaked in wash buffer maintained at 25° C. (10 mM Tris-HCl, pH 7.4/150 mM NaCl). Filters were rinsed with 6 mL wash buffer and retained tritium was quantified by a MicroBeta liquid scintillation counter (PerkinElmer) after overnight extraction in 0.6 mL of liquid scintillation cocktail (Cytoscint, ICN). The data from three experiments were pooled and fit to a dose-response curve equation (using Kaleidagraph), to yield an Emax and EC50 value.
All of the test compounds were synthesized as described herein. Next, 8-point dose-response curves were generated for each compound (1-20,000 nM) in the [^3H]DA uptake assay. The data from three experiments were pooled and fit to a dose-response curve equation (using KaleidaGraph; Synergy Software, Reading, Pa.) to yield an Emax and IC50 value. […] Selected compounds were also tested for their ability to inhibit [^3H]WIN35428 binding to rat caudate DAT.

Chain of dopamine transporter (DAT) (P23977 whole entry): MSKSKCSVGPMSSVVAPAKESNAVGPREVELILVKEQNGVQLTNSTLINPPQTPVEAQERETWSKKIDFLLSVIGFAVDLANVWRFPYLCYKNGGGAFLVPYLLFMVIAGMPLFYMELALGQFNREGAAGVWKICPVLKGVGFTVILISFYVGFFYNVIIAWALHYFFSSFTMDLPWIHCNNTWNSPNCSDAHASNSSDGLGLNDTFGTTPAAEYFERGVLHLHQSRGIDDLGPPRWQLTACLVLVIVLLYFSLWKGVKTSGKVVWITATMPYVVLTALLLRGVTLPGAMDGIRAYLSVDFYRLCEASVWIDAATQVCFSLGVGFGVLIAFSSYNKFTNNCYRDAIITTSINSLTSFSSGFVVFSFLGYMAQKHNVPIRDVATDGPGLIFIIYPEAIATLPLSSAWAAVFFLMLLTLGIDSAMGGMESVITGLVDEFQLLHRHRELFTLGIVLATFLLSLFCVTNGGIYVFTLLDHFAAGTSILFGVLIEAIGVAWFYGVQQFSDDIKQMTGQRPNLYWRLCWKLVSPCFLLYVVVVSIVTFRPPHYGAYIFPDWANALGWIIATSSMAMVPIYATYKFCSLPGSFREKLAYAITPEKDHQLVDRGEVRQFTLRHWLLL

SMILES	Efficacy of [3H]DA (DAT) uptake inhibition, in words
CN(C)c1ccc(-c2nc(NCC(c3ccccc3)N3CCOCC3)c3ccccc3n2)cc1 (stereo not drawn) [Compound 18, 2-(4-(dimethylamino)phenyl)-N-(2-morpholino-2-phenylethyl)quinazolin-4-amine]	partially inhibits

same assay, conditions: [3H]DA uptake, one-component fit

SMILES	One-Site Emax [% I]
CN(C)c1ccc(-c2nc(NCC(c3ccccc3)N3CCOCC3)c3ccccc3n2)cc1 (stereo not drawn) [Compound 18, 2-(4-(dimethylamino)phenyl)-N-(2-morpholino-2-phenylethyl)quinazolin-4-amine]	75 ± 5

same assay, conditions: [3H]DA uptake, two-component fit, component 1

SMILES	Two-Site Emax-1 [% I]
CN(C)c1ccc(-c2nc(NCC(c3ccccc3)N3CCOCC3)c3ccccc3n2)cc1 (stereo not drawn) [Compound 18, 2-(4-(dimethylamino)phenyl)-N-(2-morpholino-2-phenylethyl)quinazolin-4-amine]	57 ± 2

same assay, conditions: [3H]DA uptake, two-component fit, component 2

SMILES	Two-Site Emax-2 [% I]
CN(C)c1ccc(-c2nc(NCC(c3ccccc3)N3CCOCC3)c3ccccc3n2)cc1 (stereo not drawn) [Compound 18, 2-(4-(dimethylamino)phenyl)-N-(2-morpholino-2-phenylethyl)quinazolin-4-amine]	42 ± 4

same assay, conditions: rat caudate synaptosomes, 5 nM [3H]dopamine, mean ± SD

SMILES	DA Uptake Emax [% I]	EC50 [nM]
Cc1ccc(-c2nc(NCC(c3ccccc3)c3cccc(Cl)n3)c3ccccc3n2)cc1 (stereo not drawn) [Compound 1, N-(2-(6-chloropyridin-2-yl)-2-phenylethyl)-2-(p-tolyl)quinazolin-4-amine]	100	380
CS(=O)(=O)Nc1ccc(-c2nc(NCC(c3ccccc3)c3ccccn3)c3ccccc3n2)cc1 (stereo not drawn) [Compound 2, N-(4-(4-((2-phenyl-2-(pyridin-2-yl)ethyl)amino)quinazolin-2-yl)phenyl)methanesulfonamide]	90 ± 3	50 ± 10
CN(C)c1ccc(-c2nc(NCC(c3ccccc3)c3ccccn3)c3ccccc3n2)cc1 (stereo not drawn) [Compound 3, 2-(4-(dimethylamino)phenyl)-N-(2-phenyl-2-(pyridin-2-yl)ethyl)quinazolin-4-amine]	91 ± 4	22 ± 6
CN(C)c1ccc(-c2nc(NCC(O)(c3ccccc3)c3ccccc3)c3ccccc3n2)cc1 [Compound 5, 2-((2-(4-(dimethylamino)phenyl)quinazolin-4-yl)amino)-1,1-diphenylethanol]	74 ± 2	6.7 ± 1.4
CS(=O)(=O)Nc1ccc(-c2nc(NCC(c3ccccc3)C3CCCCC3)c3ccccc3n2)cc1 (stereo not drawn) [Compound 6, N-(4-(4-((2-cyclohexyl-2-phenylethyl)amino)quinazolin-2-yl)phenyl)methanesulfonamide]	75 ± 2	16 ± 2
CN(C)c1ccc(-c2nc(NCC(c3ccccc3)C3CCCCC3)c3ccccc3n2)cc1 (stereo not drawn) [Compound 7, N-(2-cyclohexyl-2-phenylethyl)-2-(4-(dimethylamino)phenyl)quinazolin-4-amine]	71 ± 3	46 ± 10
CS(=O)(=O)Nc1ccc(-c2nc(NCC(c3ccccc3)c3ncccn3)c3ccccc3n2)cc1 (stereo not drawn) [Compound 8, N-(4-(4-((2-phenyl-2-(pyrimidin-2-yl)ethyl)amino)quinazolin-2-yl)phenyl)methanesulfonamide]	88 ± 3	477 ± 75
CN(C)c1ccc(-c2nc(NCC(c3ccccc3)c3ncccn3)c3ccccc3n2)cc1 (stereo not drawn) [Compound 9, 2-(4-(dimethylamino)phenyl)-N-(2-phenyl-2-(pyrimidin-2-yl)ethyl)quinazolin-4-amine]	91 ± 3	117 ± 22
CN(C)c1ccc(-c2nc(NCC(c3ccccc3)c3ccncc3)c3ccccc3n2)cc1 (stereo not drawn) [Compound 11, 2-(4-(Dimethylamino)phenyl)-N-(2-phenyl-2-(pyridin-4-yl)ethyl)quinazolin-4-amine]	77 ± 2	13 ± 3
CS(=O)(=O)Nc1ccc(-c2nc(NCC(c3ccccc3)n3ccnc3)c3ccccc3n2)cc1 (stereo not drawn) [Compound 12, N-(4-(4-((2-(1H-imidazol-1-yl)-2-phenylethyl)amino)quinazolin-2-yl)phenyl)methanesulfonamide]	70 ± 3	100 ± 22
CN(C)c1ccc(-c2nc(NCC(c3ccccc3)n3ccnc3)c3ccccc3n2)cc1 (stereo not drawn) [Compound 13, N-(2-(1H-imidazol-1-yl)-2-phenylethyl)-2-(4-(dimethylamino)phenyl)quinazolin-4-amine]	86 ± 3	138 ± 21
CN(C)c1ccc(-c2nc(NCC(c3ccccc3)c3ccc[nH]3)c3ccccc3n2)cc1 (stereo not drawn) [Compound 14, 2-(4-(dimethylamino)phenyl)-N-(2-phenyl-2-(1H-pyrrol-2-yl)ethyl)quinazolin-4-amine]	77 ± 4	5.6 ± 2.1
CS(=O)(=O)Nc1ccc(-c2nc(NCC(c3ccccc3)c3ccc[nH]3)c3ccccc3n2)cc1 (stereo not drawn) [Compound 15, N-(4-(4-((2-phenyl-2-(1H-pyrrol-2-yl)ethyl)amino)quinazolin-2-yl)phenyl)methanesulfonamide]	63 ± 2	43 ± 8
CN(C)c1ccc(-c2nc(NCC(c3ccccc3)N3CCCCC3)c3ccccc3n2)cc1 (stereo not drawn) [Compound 16, 2-(4-(dimethylamino)phenyl)-N-(2-phenyl-2-(piperidin-1-yl)ethyl)quinazolin-4-amine]	88 ± 4	34 ± 9
CS(=O)(=O)Nc1ccc(-c2nc(NCC(c3ccccc3)N3CCCCC3)c3ccccc3n2)cc1 (stereo not drawn) [Compound 17, N-(4-(4-((2-phenyl-2-(piperidin-1-yl)ethyl)amino)quinazolin-2-yl)phenyl)methanesulfonamide]	83 ± 5	62 ± 20
CN(C)c1ccc(-c2nc(NCC(c3ccccc3)N3CCOCC3)c3ccccc3n2)cc1 (stereo not drawn) [Compound 18, 2-(4-(dimethylamino)phenyl)-N-(2-morpholino-2-phenylethyl)quinazolin-4-amine]	75 ± 5	15 ± 7
CS(=O)(=O)Nc1ccc(-c2nc(NCC(c3ccccc3)N3CCOCC3)c3ccccc3n2)cc1 (stereo not drawn) [Compound 19, N-(4-(4-((2-morpholino-2-phenylethyl)amino)quinazolin-2-yl)phenyl)methanesulfonamide]	71 ± 4	43 ± 13
CS(=O)(=O)Nc1ccc(-c2nc(NCC(c3ccccc3)N3CCCC3)c3ccccc3n2)cc1 (stereo not drawn) [Compound 20, N-(4-(4-((2-phenyl-2-(pyrrolidin-1-yl)ethyl)amino)quinazolin-2-yl)phenyl)methanesulfonamide]	79 ± 5	160 ± 51
CN(C)c1ccc(-c2nc(NCC(c3ccccc3)N3CCCC3)c3ccccc3n2)cc1 (stereo not drawn) [Compound 21, 2-(4-(dimethylamino)phenyl)-N-(2-phenyl-2-(pyrrolidin-1-yl)ethyl)quinazolin-4-amine]	92 ± 4	112 ± 26
CN1CCN(C(CNc2nc(-c3ccc(N(C)C)cc3)nc3ccccc23)c2ccccc2)CC1 (stereo not drawn) [Compound 22, 2-(4-(dimethylamino)phenyl)-N-(2-(4-methylpiperazin-1-yl)-2-phenylethyl)quinazolin-4-amine]	91 ± 4	30 ± 8
CN1CCN(C(CNc2nc(-c3ccc(NS(C)(=O)=O)cc3)nc3ccccc23)c2ccccc2)CC1 (stereo not drawn) [Compound 23, N-(4-(4-((2-(4-methylpiperazin-1-yl)-2-phenylethyl)amino)quinazolin-2-yl)phenyl)methanesulfonamide]	77 ± 3	62 ± 15
CN(C)c1ccc(-c2nc(NCC(c3ccccc3)c3cccnc3)c3ccccc3n2)cc1 (stereo not drawn) [Compound 24, 2-(4-(dimethylamino)phenyl)-N-(2-phenyl-2-(pyridin-3-yl)ethyl)quinazolin-4-amine]	79 ± 3	24 ± 5
CS(=O)(=O)Nc1ccc(-c2nc(NCC(c3ccccc3)c3cccnc3)c3ccccc3n2)cc1 (stereo not drawn) [Compound 25, N-(4-(4-((2-phenyl-2-(pyridin-3-yl)ethyl)amino)quinazolin-2-yl)phenyl)methanesulfonamide]	73 ± 2	25 ± 4
CN(C)c1ccc(-c2nc(NCC(Cc3ccccc3)c3ccccc3)c3ccccc3n2)cc1 (stereo not drawn) [Compound 26, 2-(4-(dimethylamino)phenyl)-N-(2,3-diphenylpropyl)quinazolin-4-amine]	78 ± 3	39 ± 9
CS(=O)(=O)Nc1ccc(-c2nc(NCC(Cc3ccccc3)c3ccccc3)c3ccccc3n2)cc1 (stereo not drawn) [Compound 27, N-(4-(4-((2,3-diphenylpropyl)amino)quinazolin-2-yl)phenyl)methanesulfonamide]	76 ± 2	58 ± 9
Cc1cc(N(C)C)ccc1-c1nc(NCC(c2ccccc2)c2ccc(CO)[nH]2)c2ccccc2n1 (stereo not drawn) [Compound 28, (5-(2-((2-(4-(dimethylamino)-2-methylphenyl)quinazolin-4-yl)amino)-1-phenylethyl)-1H-pyrrol-2-yl)methanol]	84 ± 5	18 ± 7
CS(=O)(=O)Nc1ccc(-c2nc(NCC(c3cccnc3)c3ccc[nH]3)c3ccccc3n2)cc1 (stereo not drawn) [Compound 30, N-(4-(4-((2-(pyridin-3-yl)-2-(1H-pyrrol-2-yl)ethyl)amino)quinazolin-2-yl)phenyl)methanesulfonamide]	79 ± 3	202 ± 42
CN(C)c1ccc(-c2nc(NCC(c3cccnc3)c3ccc[nH]3)c3ccccc3n2)cc1 (stereo not drawn) [Compound 31, 2-(4-(dimethylamino)phenyl)-N-(2-(pyridin-3-yl)-2-(1H-pyrrol-2-yl)ethyl)quinazolin-4-amine]	85 ± 4	47 ± 12
